Laboratory results reported in US20150219624A1, “METHODS FOR IDENTIFYING ANTI-CANCER COMPOUNDS” (MEMORIAL SLOAN KETTERING CANCER CENTER, priority 2013, published 2015).

Assays:
KOPTK1 cells = test: Transcriptome-scale ribosome footprinting (translational efficiency, rDiff ribosome distribution); assay type: cell-based, human; settings: for log2(Translational Efficiency): TE down genes with G-Quadruplex structure
Protocol: Ribosome Footprinting. KOPTK1 cells were treated with silvestrol or DMSO for 45 minutes, followed by cycloheximide treatment for 10 minutes and then harvested for total RNA and ribosome footprint fragment isolation. Total RNA was isolated using RNA isolation kit from Qiagen (74104) and subjected to RNA sequencing. Ribosome protected fragments were isolated following published protocol (Ingolia et al., 2009). Briefly cell lysates were subjected to ribosome footprinting by nuclease treatment. Footprint fragments were purified by one step sucrose cushion and gel extraction. Deep sequencing libraries were generated from these fragments. Both total RNA and footprint fragment libraries were analyzed by sequencing on the HiSeq 2000 platform.
Sequence Alignment. Sequences were aligned to the transcripts available from the human genome sequence hg19 from UCSC public database. Ribosome footprint (RF) reads were aligned to reference genome hg19 using PALMapper (Jean et al., 2010). Only the uniquely aligned reads were used for analysis. Read length of 25- to 35-bp was selected and used to analyze the translation effect of silvestrol. Total mRNA sequencing reads were aligned to the hg19 reference using STAR (Dobin et al., 2013). The splice alignment was used, and only used the uniquely aligned reads with maximum 3 mismatches.
Footprint Profile Analysis. The genome annotation was from GENCODE project (http://www.gencodegenes.org/releases/14.html). Ribosome footprint intensity (reads per million, RPM) and the expression value (reads per kilobase per million, RPKM) were measured from total mRNA-seq data and translation values were measured from ribosome footprint data. To evaluate the translation efficiency (TE) change between silvestrol- and vehicle-treated samples, TE was calculated as RPKMfootprint/RPKMmRNA (as Thoreen et al. did recently (Thoreen et al., 2012)). Changes in ribosome footprint profiles were determined by using DEXSeq algorithm (Anders et al., 2012). DEXSeq accounts for the discrete nature of the read counts and models biological variability to avoid false positives. Ratio of TEsilvestrol/TEcontrol of all the genes was plotted and color-highlighted according to the statistical significance of DEXSeq test.
Ribosome distribution analysis. The ribosomal distribution change was evaluated between silvestrol treated samples and controls. A BED file containing all non-overlapped exonic regions was generated based on genome annotation. Then the BED file and footprint BAM files were given as an input to SAMTOOLS (Li et al., 2009a) to generate new BAM files that only included exonic alignment. The exonic BAM files were input for two conditions to rDiff (Drewe et al., 2013) to identify genes that presented significant change in ribosomal distribution.
Sequence Alignment. The human genome sequence hg19 was downloaded from UCSC public database: http://hgdownload.cse.ucsc.edu/goldenPath/hg19/chromosomes. Ribosome footprint (RF) reads were aligned to reference genome hg19 using PALMapper (Jean et al., 2010). PALMapper clips the linker sequence (5′-[…]-3′), which is technically introduced during RF library construction, and trims the remaining sequence from the 3′ end while aligning the reads to reference sequence. Briefly, the parameters for PALMapper were set as follows: maximum number of mismatches: 2; maximum number of gaps: 0; minimum aligning length: 15; maximum intron length (splice alignment): 10000; minimum length of a splicing read aligned to either side of the intron boundary: 10. Only the uniquely aligned reads were used for further analysis.
To remove ribosome RNA contamination, the footprint reads were also aligned to a ribosome sequence database using PALMapper with the same parameters except allowing splice alignment. […]

human T-ALL lines = test: Activity in established human T-ALL cell lines; assay type: cell-based; settings: PTEN wild type vs PTEN mutant
BE(1)N = test: Silvestrol in neuroblastoma cell lines in vitro: BE(1)N; assay type: cell-based; settings: BE(1)N cells, N-MYC
Protocol: The effect of silvestrol on several neuroblastoma cell lines was evaluated.

## COC(=O)[C@H]1[C@@H](O)[C@@]2(O)c3c(OC)cc(O[C@@H]4O[C@@H]([C@H](O)CO)CO[C@H]4OC)cc3O[C@@]2(c2ccc(OC)cc2)[C@@H]1c1ccccc1 [silvestrol]
KOPTK1 cells; 25 nM, 45 minutes
  effect on cap-dependent translation (ribosome footprints): immediate and broad inhibitory effect
KOPTK1 cells; gene ADAM10 (ENSG00000137845)
  log2(Translational Efficiency): −0.2089
KOPTK1 cells; gene AFTPH (ENSG00000119844)
  log2(Translational Efficiency): −0.5917
KOPTK1 cells; gene ATP2B4 (ENSG00000058668)
  log2(Translational Efficiency): −0.3028
KOPTK1 cells; gene BCL11B (ENSG00000127152)
  log2(Translational Efficiency): −0.5178
KOPTK1 cells; gene C16orf72 (ENSG00000182831)
  log2(Translational Efficiency): −0.2553
KOPTK1 cells; gene CAMK2D (ENSG00000145349)
  log2(Translational Efficiency): −0.4082
KOPTK1 cells; gene CCRN4L (ENSG00000151014)
  log2(Translational Efficiency): −0.4802
KOPTK1 cells; gene CDIPT (ENSG00000103502)
  log2(Translational Efficiency): −0.324
KOPTK1 cells; gene CERS6 (ENSG00000172292)
  log2(Translational Efficiency): −0.2051
KOPTK1 cells; gene CHIC2 (ENSG00000109220)
  log2(Translational Efficiency): −0.5212
KOPTK1 cells; gene CHST11 (ENSG00000171310)
  log2(Translational Efficiency): −0.146
KOPTK1 cells; gene CPSF4 (ENSG00000160917)
  log2(Translational Efficiency): −0.3194
KOPTK1 cells; gene DIAPH1 (ENSG00000131504)
  log2(Translational Efficiency): −0.2136
KOPTK1 cells; gene DOM3Z (ENSG00000204348)
  log2(Translational Efficiency): −0.5959
KOPTK1 cells; gene DYNLL2 (ENSG00000121083)
  log2(Translational Efficiency): −0.1378
KOPTK1 cells; gene EP300 (ENSG00000100393)
  log2(Translational Efficiency): −0.4645
KOPTK1 cells; gene FAM49B (ENSG00000153310)
  log2(Translational Efficiency): −0.1392
KOPTK1 cells; gene FKRP (ENSG00000181027)
  log2(Translational Efficiency): −0.996
KOPTK1 cells; gene FOXJ2 (ENSG00000065970)
  log2(Translational Efficiency): −0.4735
KOPTK1 cells; gene GABARAPL1 (ENSG00000139112)
  log2(Translational Efficiency): −1.234
KOPTK1 cells; gene GIPC1 (ENSG00000123159)
  log2(Translational Efficiency): −0.4783
KOPTK1 cells; gene GNB1 (ENSG00000078369)
  log2(Translational Efficiency): −0.1338
KOPTK1 cells; gene GYG2 (ENSG00000056998)
  log2(Translational Efficiency): −0.9297
KOPTK1 cells; gene HDGFRP3 (ENSG00000166503)
  log2(Translational Efficiency): −0.6088
KOPTK1 cells; gene HIPK1 (ENSG00000163349)
  log2(Translational Efficiency): −0.2827
KOPTK1 cells; gene ITPR1 (ENSG00000150995)
  log2(Translational Efficiency): −0.6283
KOPTK1 cells; gene MAP3K2 (ENSG00000169967)
  log2(Translational Efficiency): −0.377
KOPTK1 cells; gene MAPKAPK2 (ENSG00000162889)
  log2(Translational Efficiency): −0.3527
KOPTK1 cells; gene MBNL1 (ENSG00000152601)
  log2(Translational Efficiency): −0.1522
KOPTK1 cells; gene MED13 (ENSG00000108510)
  log2(Translational Efficiency): −0.2939
KOPTK1 cells; gene MED13L (ENSG00000123066)
  log2(Translational Efficiency): −0.4159
KOPTK1 cells; gene MGRN1 (ENSG00000102858)
  log2(Translational Efficiency): −0.3096
KOPTK1 cells; gene MTA2 (ENSG00000149480)
  log2(Translational Efficiency): −0.2235
KOPTK1 cells; gene MYO9A (ENSG00000066933)
  log2(Translational Efficiency): −0.4735
KOPTK1 cells; gene NANS (ENSG00000095380)
  log2(Translational Efficiency): −0.3218
KOPTK1 cells; gene NDFIP1 (ENSG00000131507)
  log2(Translational Efficiency): −0.2429
KOPTK1 cells; gene PABPC4 (ENSG00000090621)
  log2(Translational Efficiency): −0.2428
KOPTK1 cells; gene PAFAH1B1 (ENSG00000007168)
  log2(Translational Efficiency): −0.3832
KOPTK1 cells; gene PAFAH1B2 (ENSG00000168092)
  log2(Translational Efficiency): −0.3883
KOPTK1 cells; gene PAIP2 (ENSG00000120727)
  log2(Translational Efficiency): −0.1573
KOPTK1 cells; gene PAK4 (ENSG00000130669)
  log2(Translational Efficiency): −0.628
KOPTK1 cells; gene PANX1 (ENSG00000110218)
  log2(Translational Efficiency): −0.3987
KOPTK1 cells; gene PATZ1 (ENSG00000100105)
  log2(Translational Efficiency): −0.3245
KOPTK1 cells; gene PPP6R1 (ENSG00000105063)
  log2(Translational Efficiency): −0.1576
KOPTK1 cells; gene PTGER4 (ENSG00000171522)
  log2(Translational Efficiency): −0.2748
KOPTK1 cells; gene PTP4A2 (ENSG00000184007)
  log2(Translational Efficiency): −0.1429
KOPTK1 cells; gene QKI (ENSG00000112531)
  log2(Translational Efficiency): −0.2913
KOPTK1 cells; gene RFXANK (ENSG00000064490)
  log2(Translational Efficiency): −0.3247
KOPTK1 cells; gene RNF4 (ENSG00000063978)
  log2(Translational Efficiency): −0.3442
KOPTK1 cells; gene RNF19A (ENSG00000034677)
  log2(Translational Efficiency): −0.4839
KOPTK1 cells; gene RPS12 (ENSG00000112306)
  log2(Translational Efficiency): −0.1732
KOPTK1 cells; gene SHISA2 (ENSG00000180730)
  log2(Translational Efficiency): −0.6086
KOPTK1 cells; gene SLC25A22 (ENSG00000177542)
  log2(Translational Efficiency): −0.3386
KOPTK1 cells; gene SLC35B3 (ENSG00000124786)
  log2(Translational Efficiency): −0.9178
KOPTK1 cells; gene SMEK1 (ENSG00000100796)
  log2(Translational Efficiency): −0.1765
KOPTK1 cells; gene SRRM2 (ENSG00000167978)
  log2(Translational Efficiency): −0.08166
KOPTK1 cells; gene STAG2 (ENSG00000101972)
  log2(Translational Efficiency): −0.1873
KOPTK1 cells; gene TAF6 (ENSG00000106290)
  log2(Translational Efficiency): −0.2102
KOPTK1 cells; gene TBC1D24 (ENSG00000162065)
  log2(Translational Efficiency): −1.231
KOPTK1 cells; gene TGFB1 (ENSG00000105329)
  log2(Translational Efficiency): −0.2213
KOPTK1 cells; gene TLE3 (ENSG00000140332)
  log2(Translational Efficiency): −0.2278
KOPTK1 cells; gene TMEM248 (ENSG00000106609)
  log2(Translational Efficiency): −0.2362
KOPTK1 cells; gene TNRC6B (ENSG00000100354)
  log2(Translational Efficiency): −0.4442
KOPTK1 cells; gene TRIM2 (ENSG00000109654)
  log2(Translational Efficiency): −2.147
KOPTK1 cells; gene TUBGCP4 (ENSG00000137822)
  log2(Translational Efficiency): −0.5346
KOPTK1 cells; gene UBE2G1 (ENSG00000132388)
  log2(Translational Efficiency): −0.3367
KOPTK1 cells; gene USP20 (ENSG00000136878)
  log2(Translational Efficiency): −0.2066
KOPTK1 cells; gene ZNF48 (ENSG00000180035)
  log2(Translational Efficiency): −0.5828
KOPTK1 cells; gene ZNF800 (ENSG00000048405)
  log2(Translational Efficiency): −0.2711
Human T-ALL lines
  activity against PTEN wild type and PTEN mutant cell lines and primary T-ALL cells: equal activity
BE(1)N
  IC50: 2.52 nM
